We go through one compound from ChEMBL document CHEMBL1255298, “Larger vancomycin doses (at least four grams per day) are associated with an increased incidence of nephrotoxicity” (Antimicrob Agents Chemother, 2008).

Series [1] is filed under the species Homo sapiens. Put plainly: Nephrotoxicity in patient with gram-positive bacterial infection assessed as serum […] level at > 4 g/day measured within 72 hrs. It is filed as toxicity, organism-based. As to conditions: in vivo.
For series [2], the species on record is Homo sapiens. The series can be described thus: Nephrotoxicity in patient with gram-positive bacterial infection assessed as change in serum […] level at > 4 g/day measured within 72 hrs. It is filed as toxicity, organism-based. As to conditions: in vivo.

Turning to `CN[C@H](CC(C)C)C(=O)N[C@H]1C(=O)N[C@@H](CC(N)=O)C(=O)N[C@H]2C(=O)N[C@H]3C(=O)N[C@H](C(=O)N[C@H](C(=O)O)c4cc(O)cc(O)c4-c4cc3ccc4O)[C@H](O)c3ccc(c(Cl)c3)Oc3cc2cc(c3O[C@@H]2O[C@H](CO)[C@@H](O)[C@H](O)[C@H]2O[C@H]2C[C@](C)(N)[C@H](O)[C@H](C)O2)Oc2ccc(cc2Cl)[C@H]1O` [VANCOMYCIN], the Activity is 2.1 mg/dL in the series listed under Homo sapiens [1] and 45.6% in the series listed under Homo sapiens [2].
